Results as given in patent publication US4894453A, “2-substituted alkoxy-3-substituted-pyrazines” (Toyo Jozo Kabushiki Kaisha, priority 1986, dated 1990).

Tests used:
[1] = test system: PAF-induced aggregation (rabbit platelet plasma); test: Platelet aggregation inhibitory action on PAF-induced aggregation; format: cell-based; settings: Oryctolagus cuniculus, 0.05 h, PAF 10-50 μg/ml, 37° C., 3 min incubation, hydrochloride salt, read-out: inhibition ratio, PAF-induced platelet aggregation
Experimental: (§1) The pharmacological activity of the present compounds [1] is illustrated below. All the compounds [1] used in the pharmacological tests were tested in the form of the hydrochloride salt thereof.
(§2) 1. Platelet aggregation inhibition:
(§3) Sample solution containing a compound [1] (final concentration 500 or 100 μM) is added to rabbit platelet plasma to which was added 10% by volume of a 3.8% sodium citrate solution, and the mixture is incubated at 37° C. for 3 minutes. A platelet activation factor (PAF, final concentration 10-50 μg/ml) or collagen (final concentration 2.5 μg/ml) is added thereto as an aggregating agent, and platelet aggregation activity is measured with an aggregometer. The results of assays for PAF-induced aggregation are shown in Table 3, and those for collagen-induced aggregation are shown in Table 4, which tables show the strong platelet aggregation inhibitory activity of the compounds [1] of the present invention.

[2] = test system: lipoperoxide generation in rat cerebrum; test: Antioxidant activity (inhibition of lipoperoxide generation, method of Stocks et al.); format: biochemical; settings: 100 μM; rat cerebrum supernatant, 37° C., 15 min, thiobarbituric acid, 532 nm; hydrochloride salt
Experimental: as §1
Antioxidant activity is determined according to the method of Stocks et al. [Clin. Sci. Mol. Med., 47: 215 (1974)]. Rat cerebrum is added to ice-cooled 40 mM phosphate saline buffer solution (PBS) (pH 7.4, 4 ml buffer per 1 g cerebrum), homogenized and centrifuged (1000×g, 4° C., 10 min.) to obtain a supernatant solution. The supernatant solution is diluted fivefold with the above ice-cooled PBS solution, and to a 0.9 ml aliquot thereof is added a sample containing a compound [1] (0.1 ml, final concentration 100 μM) dissolved in ethanol. The resultant mixture is incubated at 37° C. for 15 minutes, 35% perchloric acid (0.2 ml) is added, and the mixture is ice-cooled to stop the reaction and centrifuged (1300×g, 4° C., 10 min.). 0.5 ml thiobarbituric acid (5 g/lit. of 50% acetic acid) is added to the supernatant solution (1 ml), so as to measure its absorbancy at 532 nm. The amount of lipoperoxide thus generated is expressed as an amount of malondialdehyde.

[3] = test system: collagen-induced aggregation (rabbit platelet plasma); test: Platelet aggregation inhibitory action on collagen-induced aggregation; format: cell-based; settings: Oryctolagus cuniculus, 0.05 h, collagen 2.5 μg/ml, 37° C., 3 min incubation, hydrochloride salt, read-out: inhibition ratio, collagen-induced platelet aggregation
Experimental: as §1, §2, §3

Row | SMILES | inhibition at 100 µM [1] [%] | inhibition ratio, lipoperoxide generation (antioxidant activity) [2] [%] | other results
1 | Cc1nc(C)c(OCC(=O)N2CCN(C(=O)COc3nc(C)c(C)nc3C)CC2)nc1C [Compound 070] | – | – | inhibition at 500 µM ([1]; 500 μM): 48%
2 | CCc1nc(C)c(C)nc1OC(C(=O)NCCN1CCOCC1)c1ccccc1 (stereo not drawn) [Compound 341] | 42 | – | –
3 | CCc1nc(C)c(C)nc1OC(C(=O)NCCN1CCN(Cc2ccccc2)CC1)c1ccccc1 (stereo not drawn) [Compound 342] | 43 | – | –
4 | CCc1nc(C)c(C)nc1OC(C(=O)NCCN1CCN(Cc2ccc([N+](=O)[O-])cc2)CC1)c1ccccc1 (stereo not drawn) [Compound 344] | 44 | 48 | –
5 | CCc1nc(C)c(C)nc1OC(C(=O)NCCN1CCN(Cc2ccc(Cl)cc2Cl)CC1)c1ccccc1 (stereo not drawn) [Compound 345] | – | 54 | –
6 | CCc1nc(C)c(C)nc1OC(C(=O)NCCN1CCCN(Cc2ccc(F)cc2)CC1)c1ccccc1 (stereo not drawn) [Compound 347] | 59 | 51 | –
7 | CCc1nc(C)c(C)nc1OC(C(=O)NCCN1CCCN(Cc2ccc(Cl)cc2)CC1)c1ccccc1 (stereo not drawn) [Compound 348] | 70 | 62 | –
8 | O=C(COc1nc2c(nc1Cc1ccccc1)CCCC2)NCCN1CCN(c2ccc(Cl)cc2)CC1 [Compound 371] | – | 49 | –
9 | O=C(COc1nc2c(nc1Cc1ccccc1)CCCC2)NCCN1CCCN(Cc2ccc(F)cc2)CC1 [Compound 372] | – | 64 | –
10 | O=C(COc1nc2c(nc1Cc1ccccc1)CCCC2)NCCN1CCN(c2ccccc2)CC1 [Compound 373] | – | 49 | –
11 | CCc1nc(Cc2ccccc2)c(OCC(=O)NCCN2CCN(Cc3ccc(Cl)cc3)CC2)nc1CC [Compound 379] | – | 50 | –
12 | CCc1nc(Cc2ccccc2)c(OCC(=O)NCCN2CCCN(Cc3ccc(Cl)cc3)CC2)nc1CC [Compound 382] | – | 83 | –
13 | CCc1nc(C)c(C)nc1OCCN1CCCN(Cc2ccc([N+](=O)[O-])cc2)CC1 [Compound 502] | 81 | 69 | –
14 | CCc1nc(C)c(C)nc1OCCN1CCCN(Cc2ccc(F)cc2)CC1 [Compound 503] | 42 | – | –
15 | CCc1nc(C)c(C)nc1OCCN1CCCN(Cc2ccc(Cl)cc2)CC1 [Compound 504] | 60 | – | –
16 | Cc1nc(Cc2ccccc2)c(OCCN2CCCN(Cc3ccc(Cl)cc3)CC2)nc1C [Compound 516] | – | 75 | –
17 | CCCCc1nc2c(nc1OCCN1CCCN(Cc3ccc(Cl)cc3)CC1)CCCC2 [Compound 520] | – | 83 | –
18 | Cc1nc(C)c(OCCN2CCCN(Cc3ccc(Cl)cc3)CC2)nc1C [Compound 541] | 44 | – | –
19 | Cc1nc(OCCN2CCCN(Cc3ccc(Cl)cc3)CC2)c(C(C)C)nc1C [Compound 547] | – | – | inhibition at 100 µM [3]: 56%

Row | SMILES | inhibition at 100 µM [1] [%] | inhibition ratio, lipoperoxide generation (antioxidant activity) [2] [%] | other results
20 | CCCCN1CCN(CCOc2nc(CC)c(CC)nc2C(C)C)CC1 [Compound 551] | 97 | – | –
21 | CCc1nc(OCCN2CCN(Cc3ccccc3)CC2)c(C(C)C)nc1CC [Compound 552] | 78 | – | –
22 | CCc1nc(OCCN2CCCN(Cc3ccc(OC)cc3)CC2)c(C(C)C)nc1CC [Compound 553] | 82 | – | –
23 | CCCCCc1nc2c(nc1OCCN1CCN(CCCC)CC1)CCCC2 [Compound 560] | 97 | – | –
24 | CCCCCc1nc2c(nc1OCCN1CCN(Cc3ccccc3)CC1)CCCC2 [Compound 561] | 56 | – | –
25 | CCCCCc1nc2c(nc1OCCN1CCCN(Cc3ccc(F)cc3)CC1)CCCC2 [Compound 562] | 45 | 65 | –
26 | CCCCCCc1nc2c(nc1OCCN1CCN(CCCC)CC1)CCCC2 [Compound 565] | 94 | – | –
27 | CCCCCCc1nc2c(nc1OCCN1CCN(Cc3ccccc3)CC1)CCCC2 [Compound 567] | 58 | – | –
28 | CCCCCCc1nc2c(nc1OCCN1CCN(Cc3ccc(Cl)cc3)CC1)CCCC2 [Compound 568] | – | 61 | –
29 | CCCCCCc1nc2c(nc1OCCN1CCCN(Cc3ccc(F)cc3)CC1)CCCC2 [Compound 569] | – | 81 | –
30 | CCCCCCc1nc2c(nc1OCCN1CCN(c3ccccc3OC)CC1)CCCC2 [Compound 570] | 40 | 65 | –
31 | CCCCCCCc1nc2c(nc1OCCN1CCN(CCCC)CC1)CCCC2 [Compound 571] | 88 | – | –
32 | CCCCCCCCc1nc2c(nc1OCCN1CCN(Cc3ccccc3)CC1)CCCC2 [Compound 574] | – | 71 | –
33 | CCCCCCCCc1nc2c(nc1OCCN1CCN(Cc3ccc(Cl)cc3)CC1)CCCC2 [Compound 575] | – | 79 | –
34 | CCCCCCCCc1nc2c(nc1OCCN1CCCN(Cc3ccc(F)cc3)CC1)CCCC2 [Compound 576] | – | 85 | –
35 | CCCCCCCCc1nc2c(nc1OCCN1CCN(c3ccccc3)CC1)CCCC2 [Compound 577] | – | 71 | –
36 | CCCCCCCCc1nc2c(nc1OCCN1CCN(c3ccccc3OC)CC1)CCCC2 [Compound 578] | – | 88 | –
37 | CCCCCCCCCc1nc2c(nc1OCCN1CCN(Cc3ccccc3)CC1)CCCC2 [Compound 581] | – | 71 | –
38 | CCCCCCCCCc1nc2c(nc1OCCN1CCN(Cc3ccc(OC)cc3)CC1)CCCC2 [Compound 582] | – | 82 | inhibition at 100 µM [3]: 58%

Row | SMILES | inhibition at 100 µM [1] [%] | inhibition ratio, lipoperoxide generation (antioxidant activity) [2] [%] | other results
39 | CCCCCCCCCc1nc2c(nc1OCCN1CCCN(Cc3ccc(Cl)cc3)CC1)CCCC2 [Compound 583] | – | 82 | –
40 | CCCCCCCCCCc1nc2c(nc1OCCN1CCCCC1)CCCC2 [Compound 586] | – | 68 | –
41 | CCCCCCCCCCc1nc2c(nc1OCCN1CCN(Cc3ccccc3)CC1)CCCC2 [Compound 589] | – | 74 | –
42 | CCCCCCCCCCc1nc2c(nc1OCCN1CCN(Cc3ccc(Cl)cc3)CC1)CCCC2 [Compound 590] | – | 74 | –
43 | CCCCCCCCCCc1nc2c(nc1OCCN1CCN(C(c3ccccc3)c3ccccc3)CC1)CCCC2 [Compound 591] | – | 59 | –
44 | CCCCCCCCCCc1nc2c(nc1OCCN1CCCN(Cc3ccc(F)cc3)CC1)CCCC2 [Compound 592] | – | 85 | –
45 | CCCCCCCCCCc1nc2c(nc1OCCN1CCN(c3ccc(OC)cc3)CC1)CCCC2 [Compound 593] | – | 73 | –
46 | CCCCCCCCCCCCc1nc2c(nc1OCCN1CCOCC1)CCCC2 [Compound 594] | – | 58 | –
47 | CCCCCCCCCCCCc1nc2c(nc1OCCN1CCN(CCCC)CC1)CCCC2 [Compound 595] | 85 | 70 | –
48 | CCCCCCCCCCCCc1nc2c(nc1OCCN1CCN(Cc3ccccc3)CC1)CCCC2 [Compound 596] | – | 73 | –
49 | CCCCCCCCCCCCc1nc2c(nc1OCCN1CCN(Cc3ccc(OC)cc3)CC1)CCCC2 [Compound 597] | – | 76 | –
50 | CCCCCCCCCCCCc1nc2c(nc1OCCN1CCCN(Cc3ccc(F)cc3)CC1)CCCC2 [Compound 598] | – | 88 | –
51 | CCCCCCCCCCCCc1nc2c(nc1OCCN1CCN(c3ccccc3OC)CC1)CCCC2 [Compound 599] | – | 70 | –
52 | CCCCCCCCCCCCCCc1nc2c(nc1OCCN1CCN(CCCC)CC1)CCCC2 [Compound 600] | 52 | 61 | –
53 | CCCCCCCCCCCCCCc1nc2c(nc1OCCN1CCN(Cc3ccccc3)CC1)CCCC2 [Compound 601] | – | 67 | –
54 | CCCCCCCCCCCCCCc1nc2c(nc1OCCN1CCN(Cc3ccc(F)cc3)CC1)CCCC2 [Compound 602] | – | 64 | –
55 | CCCCCCCCCCCCCCc1nc2c(nc1OCCN1CCCN(Cc3ccc(Cl)cc3)CC1)CCCC2 [Compound 603] | – | 76 | –
56 | CCCCCCCCCCCCCCCCc1nc2c(nc1OCCN1CCN(CCCC)CC1)CCCC2 [Compound 607] | – | 52 | –
57 | CCCCCCCCCCCCCCCCc1nc2c(nc1OCCN1CCN(Cc3ccccc3)CC1)CCCC2 [Compound 608] | – | 55 | –
